In patent US12638394B2, “Skin sensitization measuring reagent, method for measuring skin sensitization, and compound” (FUJIFILM Corporation, priority 2019, dated 2026):

Experiment: Reactivity of nucleophilic reagent with evaluation substance (depletion, HPLC), primary evaluation
Conditions: 1 mmol/L test substance solution, 25° C., 24 hours
Protocol: 1) A nucleophilic reagent is dissolved in DMSO (manufactured by FUJIFILM Wako Pure Chemical Corporation) depending on its molecular weight to prepare a 2 mmol/L nucleophilic reagent solution.
2) To a 500 mL container, 149.5 mL of the buffer solution is added using a 50 mL measuring pipette, and 0.5 mL of the 2 mmol/L nucleophilic reagent solution is added and mixed by inversion so that the solution is diluted 300-fold (6.667 μmol/L). This solution is stored in a freezer at −70° C. or lower.
(§1) One solvent with which a 1 mmol/L test substance solution can be prepared is selected according to the following order of priority: water, acetonitrile, acetone, and a 5% solution of DMSO in acetonitrile. If water, acetonitrile, or acetone is selected, a 20 mmol/L test substance solution is first prepared. A suitable amount of the test substance is weighed and completely dissolved by adding the solvent to prepare a 20 mmol/L solution. A portion of the 20 mmol/L solution is then collected and diluted 20-fold with the same solvent to prepare a 1 mmol/L test substance solution. If a 5% by mass solution of DMSO in acetonitrile is selected, a 20 mmol/L test substance solution is prepared in the same manner as above. A portion of the solution is then collected and diluted 20-fold with acetonitrile to prepare a 1 mmol/L test substance solution.
Test substance solutions are prepared on a 96-well plate (U96 PP-0.5 ML NATURAL, Thermo (NUNC)), mainly using a 12-channel pipette, and the reagent is added in the following amount:
Nucleophilic reagent: 150 μL
(§2) Test substance solution: 50 μL
(§3) The plate is firmly sealed with a plate seal (resistant embossed seal (TORAST™ 96-well Seal E Type (TORAST is a registered trademark)), Shimadzu GLC Ltd.) and is shaken on a plate shaker (Titramax 100, Heidolph Instruments). After being spun down in a centrifuge, the reaction solutions are incubated at 25° C. in a light-shielded state for 24 hours.
(§4) After incubation for 24 hours, the plate seal is removed, and 50 μL of the reaction stop solution is added to each sample to stop the reaction.
The HPLC measurement conditions for the nucleophilic reagents are given below. As the elution conditions, condition 1, 2 or 3 was selected depending on the nucleophilic reagent.
(§5) The depletion of the nucleophilic reagent is calculated from the mean peak area of the nucleophilic reagent by the following equation: […]
(§6) Ten substances shown in the following table were used for reactivity evaluation. For primary evaluation, the upper three substances were used. […] For secondary evaluation, the lower seven substances were used. The substances selected for the secondary evaluation were substances that are difficult to distinguish between sensitizers and non-sensitizers by analysis using NAC and NAL. As above, the substances selected for the secondary evaluation were five substances that mainly react with cysteine and two substances that mainly react with lysine.

Row | Compound | reactivity (nucleophilic reagent depletion) with 2-methyl-2H-isothiazol-3-one
1 | CC(=O)N[C@@H](CS)C(=O)N[C@@H](CCCCN)C(=O)N[C@@H](CC(=O)O)C(=O)NCc1cccc2ccccc12 [Compound 4] | about 100%
2 | NCCCC[C@H](NC(=O)[C@H](CS)NC(=O)CO)C(=O)N[C@@H](CC(=O)O)C(=O)NCc1cccc2ccccc12 [Compound 13] | about 100%
3 | NCCCCC(NC(=O)[C@H](CS)NC(=O)[C@H](Cc1ccccn1)NC(=O)Cc1ccc2ccccc2c1)C(N)=O (some centres unmarked) [Compound 16] | about 100%
4 | NCCCCC(NC(=O)[C@H](CS)NC(=O)[C@H](Cc1c[nH]cn1)NC(=O)Cc1ccc2ccccc2c1)C(N)=O (some centres unmarked) [Compound 19] | about 100%
5 | NCCCCC(NC(=O)[C@H](CS)NC(=O)[C@H](Cc1ccccn1)NC(=O)Cc1ccc2ccccc2c1)C(=O)O (some centres unmarked) [Compound 21] | about 100%
6 | NCCCCC(NC(=O)[C@H](CS)NC(=O)C(Cc1ccncc1)NC(=O)Cc1ccc2ccccc2c1)C(=O)O (some centres unmarked) [Compound 22] | about 100%
7 | NCCCCC(NC(=O)[C@H](CS)NC(=O)C(Cc1c[nH]cn1)NC(=O)Cc1ccc2ccccc2c1)C(=O)O (some centres unmarked) [Compound 24] | about 100%
8 | NCCCC[C@H](NC(=O)C(Cc1ccncc1)NC(=O)Cc1ccc2ccccc2c1)C(=O)NC(CS)C(=O)O (some centres unmarked) [Compound 27] | about 100%
9 | NCCCC[C@H](NC(=O)C(Cc1c[nH]cn1)NC(=O)Cc1ccc2ccccc2c1)C(=O)NC(CS)C(=O)O (some centres unmarked) [Compound 29] | about 100%
10 | NCCCCC(NC(=O)Cc1ccc2ccccc2c1)C(=O)N[C@@H](CS)C(=O)O (some centres unmarked) [Compound 30] | about 100%

Experiment: Depletion of nucleophilic reagent by evaluation substance (HPLC)
Conditions: 1 mmol/L test substance solution, 25° C., 24 hours
Text: as §1, §3, §4, §5, §6
Using the three substances shown in the following table, 1 mmol/L solutions were prepared and used for testing.
A solution prepared by dissolving NAC and NAL in a phosphate buffer solution (pH 8.0) prepared in accordance with “(1-2) 100 mmol/L Phosphate Buffer Solution (pH 8.0)” of “(1) Preparation of Various Solutions” above such that the concentration of each nucleophilic reagent was 13.333 μmol/L was used as a nucleophilic reagent stock solution.
Nucleophilic reagent stock solution: NAC and NAL, 75 μL each
as §2
The procedures described in “(4-2) Reaction” and “(4-3) Reaction Stop” of “(4) Reaction” above were performed.
In addition, the nucleophilic reagent depletion (%) was determined by the method described in “(6) Data Analysis” above.

Row | Compound | depletion for 5-methyl-2,3-hexanedione | depletion for diphenylcyclopropenone | depletion for nonanoyl chloride
11 | CC(=O)N[C@@H](CCCCN)C(=O)N[C@@H](CS)C(=O)NCc1cccc2ccccc12 [Compound 2] | 16.7% | 34.9% | 65.2%
12 | CC(=O)N[C@@H](CS)C(=O)N[C@@H](CCCCN)C(=O)N[C@@H](CC(=O)O)C(=O)NCc1cccc2ccccc12 [Compound 4] | 13.8% | 100% | 67.6%

Experiment: Reactivity of nucleophilic reagent, secondary evaluation with seven substances
Conditions: all six substances except 5-methyl-2,3-hexanedione
Text: as §1
as §3, with “hours. […]” for “hours.”
as §5

Row | Compound | reactivity with six secondary evaluation substances compared with NAC or NAL
13 | CC(=O)N[C@@H](CCCCN)C(=O)N[C@@H](CS)C(=O)NCc1cccc2ccccc12 [Compound 2] | higher than that of NAC or NAL alone and the mean depletion
14 | CC(=O)N[C@@H](CS)C(=O)N[C@@H](CCCCN)C(=O)N[C@@H](CC(=O)O)C(=O)NCc1cccc2ccccc12 [Compound 4] | higher than that of NAC or NAL alone and the mean depletion

Experiment: not given
Conditions: class given for the evaluation substance; cited from earlier work

Row | Compound | Skin sensitization
15 | Cn1sccc1=O [2-Methyl-2H-isothiazol-3-one] | Moderate
16 | CC(C=O)Cc1ccc(C(C)C)cc1 (centres unmarked) [Cyclamen aldehyde] | Strong sensitizer
17 | O=c1c(-c2ccccc2)c1-c1ccccc1 [Diphenylcyclopropenone] | Strong sensitizer
18 | C=C(C)C(=O)OCCOC(=O)C(=C)C [Ethylene glycol dimethacrylate] | Strong sensitizer
19 | CC(CC=O)CCCC(C)(C)O (centres unmarked) [Hydroxycitronellal] | Strong sensitizer
20 | CCCCCCCCC(=O)Cl [Nonanoyl chloride] | Moderate
21 | O=C(O)c1ccccc1O [Salicylic acid] | Non-sensitizer
22 | O=C(O)c1ccc2c(c1)C(=O)OC2=O [Trimellitic anhydride] | Strong sensitizer
